Reference: PubChem BioAssay (NCI)
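1) Cells in 96-well plates. 2) Compound, 48 h, 5 concentrations. 3) Linear interpolation between surrounding doses. 4) Unreached endpoint = highest concentration. TGI marks complete inhibition of growth.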

Experiments:
Test in all cases: NCI tumour cell line growth inhibition, 48 h
DMS 273 small cell lung = tested on: DMS 273 small cell lung
CCRF-CEM leukemia = tested on: CCRF-CEM leukemia
SK-MEL-2 melanoma = tested on: SK-MEL-2 melanoma
P388 leukemia = tested on: P388 leukemia
SF-268 CNS = tested on: SF-268 CNS
SF-295 CNS = tested on: SF-295 CNS
IGROV1 ovarian = tested on: IGROV1 ovarian
U251 CNS = tested on: U251 CNS
SK-MEL-28 melanoma = tested on: SK-MEL-28 melanoma
RXF 393 renal = tested on: RXF 393 renal
KM20L2 colon = tested on: KM20L2 colon
RPMI-8226 leukemia = tested on: RPMI-8226 leukemia
COLO 205 colon = tested on: COLO 205 colon
MALME-3M melanoma = tested on: MALME-3M melanoma
SNB-75 CNS = tested on: SNB-75 CNS
SNB-78 CNS = tested on: SNB-78 CNS
UO-31 renal = tested on: UO-31 renal
HOP-18 NSCLC = tested on: HOP-18 NSCLC
MOLT-4 leukemia = tested on: MOLT-4 leukemia
UACC-62 melanoma = tested on: UACC-62 melanoma
OVCAR-5 ovarian = tested on: OVCAR-5 ovarian
NCI-H23 lung = tested on: NCI-H23 lung
NCI-H522 lung = tested on: NCI-H522 lung
SNB-19 CNS = tested on: SNB-19 CNS
HOP-92 NSCLC = tested on: HOP-92 NSCLC
A549 NSCLC = tested on: A549 NSCLC
KM12 colon = tested on: KM12 colon
HOP-62 NSCLC = tested on: HOP-62 NSCLC
M19-MEL melanoma = tested on: M19-MEL melanoma
SK-OV-3 ovarian = tested on: SK-OV-3 ovarian
K-562 leukemia = tested on: K-562 leukemia
OVCAR-4 ovarian = tested on: OVCAR-4 ovarian
NCI/ADR-RES ovarian = tested on: NCI/ADR-RES ovarian
XF 498 CNS = tested on: XF 498 CNS
OVCAR-8 ovarian = tested on: OVCAR-8 ovarian
SN12K1 renal = tested on: SN12K1 renal
SF-539 CNS = tested on: SF-539 CNS
A498 renal = tested on: A498 renal
LOX IMVI melanoma = tested on: LOX IMVI melanoma
DMS 114 small cell lung = tested on: DMS 114 small cell lung
HCT-116 colon = tested on: HCT-116 colon
NCI-H226 lung = tested on: NCI-H226 lung
UACC-257 melanoma = tested on: UACC-257 melanoma
MCF7 breast = tested on: MCF7 breast
SW-620 colon = tested on: SW-620 colon
EKVX NSCLC = tested on: EKVX NSCLC
HCT-15 colon = tested on: HCT-15 colon
HCC-2998 colon = tested on: HCC-2998 colon
SK-MEL-5 melanoma = tested on: SK-MEL-5 melanoma
NCI-H460 lung = tested on: NCI-H460 lung
DLD-1 colon = tested on: DLD-1 colon
HT29 colon = tested on: HT29 colon
HL-60(TB) leukemia = tested on: HL-60(TB) leukemia
OVCAR-3 ovarian = tested on: OVCAR-3 ovarian
SN12C renal = tested on: SN12C renal
RXF-631 renal = tested on: RXF-631 renal
TK-10 renal = tested on: TK-10 renal
SR leukemia = tested on: SR leukemia
CAKI-1 renal = tested on: CAKI-1 renal
786-0 renal = tested on: 786-0 renal
LXFL 529 NSCLC = tested on: LXFL 529 NSCLC
ACHN renal = tested on: ACHN renal
M14 melanoma = tested on: M14 melanoma

Structure (SMILES): COc1cc([C@@H]2c3cc4c(c(O[C@@H]5O[C@H]6CO[C@@H](C)O[C@H]6[C@H](O)[C@@H]5O)c3C[C@H]3COC(=O)[C@@H]32)OCO4)cc(OC)c1O
- TGI (DMS 273 small cell lung): > 100 µM
- TGI (CCRF-CEM leukemia): > 100 µM
- TGI (SK-MEL-2 melanoma): > 100 µM
- TGI (P388 leukemia): 4.82 µM
- TGI (SF-268 CNS): > 79.5 µM
- TGI (SF-295 CNS): 22.5 µM
- TGI (IGROV1 ovarian): > 100 µM
- TGI (U251 CNS): > 46.8 µM
- TGI (SK-MEL-28 melanoma): > 100 µM
- TGI (RXF 393 renal): > 100 µM
- TGI (KM20L2 colon): > 100 µM
- TGI (RPMI-8226 leukemia): > 100 µM
- TGI (COLO 205 colon): > 100 µM
- TGI (MALME-3M melanoma): > 100 µM
- TGI (SNB-75 CNS): > 100 µM
- TGI (SNB-78 CNS): > 100 µM
- TGI (UO-31 renal): > 100 µM
- TGI (HOP-18 NSCLC): > 100 µM
- TGI (MOLT-4 leukemia): > 100 µM
- TGI (UACC-62 melanoma): > 100 µM
- TGI (OVCAR-5 ovarian): > 100 µM
- TGI (NCI-H23 lung): > 100 µM
- TGI (NCI-H522 lung): 6.42 µM
- TGI (SNB-19 CNS): > 100 µM
- TGI (HOP-92 NSCLC): > 100 µM
- TGI (A549 NSCLC): > 100 µM
- TGI (KM12 colon): > 79.6 µM
- TGI (HOP-62 NSCLC): > 100 µM
- TGI (M19-MEL melanoma): > 100 µM
- TGI (SK-OV-3 ovarian): > 92.9 µM
- TGI (K-562 leukemia): > 100 µM
- TGI (OVCAR-4 ovarian): > 53.3 µM
- TGI (NCI/ADR-RES ovarian): 37.1 µM
- TGI (XF 498 CNS): > 100 µM
- TGI (OVCAR-8 ovarian): > 100 µM
- TGI (SN12K1 renal): > 45.1 µM
- TGI (SF-539 CNS): 7.79 µM
- TGI (A498 renal): > 100 µM
- TGI (LOX IMVI melanoma): > 100 µM
- TGI (DMS 114 small cell lung): > 31.1 µM
- TGI (HCT-116 colon): > 44.6 µM
- TGI (NCI-H226 lung): 20.8 µM
- TGI (UACC-257 melanoma): > 100 µM
- TGI (MCF7 breast): > 100 µM
- TGI (SW-620 colon): > 100 µM
- TGI (EKVX NSCLC): > 100 µM
- TGI (HCT-15 colon): > 100 µM
- TGI (HCC-2998 colon): > 81.1 µM
- TGI (SK-MEL-5 melanoma): > 100 µM
- TGI (NCI-H460 lung): > 100 µM
- TGI (DLD-1 colon): > 100 µM
- TGI (HT29 colon): > 100 µM
- TGI (HL-60(TB) leukemia): > 38.9 µM
- TGI (OVCAR-3 ovarian): 20.6 µM
- TGI (SN12C renal): > 100 µM

Structure (SMILES): O=C(O)/C=C\C(=O)c1ccc(Cl)cc1
- TGI (DMS 273 small cell lung): > 31.6 µM
- TGI (RXF-631 renal): > 100 µM
- TGI (CCRF-CEM leukemia): 48.7 µM
- TGI (SK-MEL-2 melanoma): > 76.8 µM
- TGI (SF-268 CNS): > 71.1 µM
- TGI (SF-295 CNS): > 100 µM
- TGI (IGROV1 ovarian): > 100 µM
- TGI (TK-10 renal): > 100 µM
- TGI (U251 CNS): > 100 µM
- TGI (SK-MEL-28 melanoma): 34.7 µM
- TGI (RXF 393 renal): 40.5 µM
- TGI (KM20L2 colon): > 74.7 µM
- TGI (RPMI-8226 leukemia): 66.7 µM
- TGI (COLO 205 colon): 34.9 µM
- TGI (MALME-3M melanoma): 34.5 µM
- TGI (SNB-75 CNS): > 79 µM
- TGI (SR leukemia): 52.2 µM
- TGI (SNB-78 CNS): > 100 µM
- TGI (UO-31 renal): 99.8 µM
- TGI (HOP-18 NSCLC): > 100 µM
- TGI (MOLT-4 leukemia): 49 µM
- TGI (UACC-62 melanoma): > 75.4 µM
- TGI (CAKI-1 renal): 47.2 µM
- TGI (OVCAR-5 ovarian): > 100 µM
- TGI (NCI-H23 lung): > 86.7 µM
- TGI (NCI-H522 lung): > 100 µM
- TGI (SNB-19 CNS): > 100 µM
- TGI (HOP-92 NSCLC): 47.8 µM
- TGI (A549 NSCLC): > 100 µM
- TGI (KM12 colon): 98.9 µM
- TGI (HOP-62 NSCLC): > 100 µM
- TGI (M19-MEL melanoma): 55.8 µM
- TGI (SK-OV-3 ovarian): > 100 µM
- TGI (K-562 leukemia): 82.8 µM
- TGI (OVCAR-4 ovarian): > 100 µM
- TGI (XF 498 CNS): > 76.6 µM
- TGI (OVCAR-8 ovarian): > 100 µM
- TGI (786-0 renal): > 78.7 µM
- TGI (SF-539 CNS): 54.2 µM
- TGI (A498 renal): > 100 µM
- TGI (LOX IMVI melanoma): > 61.7 µM
- TGI (DMS 114 small cell lung): 55.4 µM
- TGI (HCT-116 colon): > 58.8 µM
- TGI (LXFL 529 NSCLC): 48.4 µM
- TGI (NCI-H226 lung): > 87.6 µM
- TGI (UACC-257 melanoma): 38 µM
- TGI (SW-620 colon): 50.1 µM
- TGI (EKVX NSCLC): > 94 µM
- TGI (HCT-15 colon): 50.2 µM
- TGI (HCC-2998 colon): > 100 µM
- TGI (SK-MEL-5 melanoma): > 100 µM
- TGI (NCI-H460 lung): > 100 µM
- TGI (ACHN renal): 73.3 µM
- TGI (DLD-1 colon): > 100 µM
- TGI (HT29 colon): > 64.9 µM
- TGI (HL-60(TB) leukemia): 58.5 µM
- TGI (OVCAR-3 ovarian): > 73.3 µM
- TGI (M14 melanoma): 33.2 µM
- TGI (SN12C renal): > 100 µM
